pEC50: −log10 of the molar value.
What was measured:
[1] = biological target: T1, human FXR alpha ligand binding domain (Homo sapiens, UniProt Q96RI1); assay: FRET activity assay (ligand mediated cofactor peptide interaction, LANCE); format: biochemical; conditions: GST-FXR-LBD / biotinylated SRC-1 peptide (676-700), read-out: F EC50
T1 construct: made in house; host or cells: E. coli BL21(DE3), vector pDEST15
T1 sequence (Q96RI1 187-472 isoform Q96RI1-2): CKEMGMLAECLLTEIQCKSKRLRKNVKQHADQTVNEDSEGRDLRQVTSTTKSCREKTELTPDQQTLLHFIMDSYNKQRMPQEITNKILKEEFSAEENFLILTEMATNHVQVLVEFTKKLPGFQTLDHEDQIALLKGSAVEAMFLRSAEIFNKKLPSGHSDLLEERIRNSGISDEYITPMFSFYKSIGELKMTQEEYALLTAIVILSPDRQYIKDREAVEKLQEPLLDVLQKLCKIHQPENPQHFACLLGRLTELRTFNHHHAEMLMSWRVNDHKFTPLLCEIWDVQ
Summary of the method: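 GST-tagged FXR LBD (aa 187–472, E. coli-expressed) at 20–60 ng/well with 200–600 nM biotinylated SRC-1 peptide (676–700), streptavidin-APC and Eu anti-GST in Tris pH 7.5 buffer, 1% DMSO, equilibrated 1 h dark at room temperature. TR-FRET read as 665/615 nm ratio; agonists raise signal above basal.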

[2] = biological target: T2, FXR ligand binding domain (Homo sapiens, UniProt Q96RI1); assay: Mammalian One Hybrid (M1H) assay, Gal4 promoter driven transactivation in HEK293 cells; format: cell-based; conditions: Gal4-FXR-LBD luciferase reporter, 16 h
T2 construct: expressed in transfected cells; host or cells: HEK293 cells, transiently transfected with pCMV-BD-FXR-LBD, pFR-Luc and pRL-CMV
T2 sequence (Q96RI1 187-472 isoform Q96RI1-2): T1 sequence (Q96RI1 187-472 isoform Q96RI1-2)
Summary of the method: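 HEK293 cells were transiently co-transfected with Gal4-DBD fused to the human FXR LBD (aa 187-472, NM_005123), a 5×GAL4-site firefly luciferase reporter and CMV-Renilla control. Compounds were added 2-4 h post-transfection (vehicle ≤0.1%) in charcoal/dextran-stripped FBS medium for 16 h. Firefly and Renilla luciferase were read sequentially, in triplicate.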

Compound | pEC50 [1] | pEC50 [2]
Cc1onc(-c2c(Cl)cccc2Cl)c1CO[C@@H]1C[C@H]2CC[C@@H](C1)[C@]2(O)c1nc2ccc(C(=O)O)cc2s1 [Example 11-37, 2-((1R,3s,5S,8r)-3-((3-(2,6-Dichlorophenyl)-5-methylisoxazol-4-yl)methoxy)-8-hydroxybicyclo[3.2.1]octan-8-yl)benzo[d]thiazole-6-carboxylic acid] | 8.06 | 7.37
O=C(O)c1cc(F)c2nc([C@]3(O)[C@@H]4CC[C@H]3C[C@H](OCc3c(-c5ccccc5OC(F)F)noc3C3CC3)C4)sc2c1 [Example 11-28, 2-((1R,3s,5S,8r)-3-((5-Cyclopropyl-3-(2-(difluoromethoxy)phenyl)isoxazol-4-yl)methoxy)-8-hydroxybicyclo[3.2.1]octan-8-yl)-4-fluorobenzo[d]thiazole-6-carboxylic acid] | 8.01 | 7.77
CS(=O)(=O)NC(=O)c1cc(F)c2nc([C@]3(O)CC[C@@H](OCc4c(-c5c(Cl)cccc5Cl)noc4C4CC4)CC3)sc2c1 [Example 16, 2-((1s,4s)-4-((5-Cyclopropyl-3-(2,6-dichlorophenyl)isoxazol-4-yl)methoxy)-1-hydroxycyclohexyl)-4-fluoro-N-(methylsulfonyl)benzo[d]thiazole-6-carboxamide] | 7.66 | 5.72

Next, values leading:

pEC50 [1] | pEC50 [2] | Compound
7.60 | 6.26 | O=C(O)c1ccc2nc([C@]3(O)CC[C@@H](OCc4c(-c5c(Cl)cccc5Cl)noc4C4CC4)CC3)sc2c1F [Example 14-1, 2-((1s,4s)-4-((5-Cyclopropyl-3-(2,6-dichlorophenyl)isoxazol-4-yl)methoxy)-1-hydroxycyclohexyl)-7-fluorobenzo[d]thiazole-6-carboxylic acid]
7.43 | 7.11 | O[C@@]1(c2nc3ccc(Br)cc3s2)[C@@H]2CC[C@H]1C[C@H](OCc1c(-c3c(Cl)cccc3Cl)noc1C1CC1)C2 [Example 15-1, (1R,3s,5S,8r)-8-(6-Bromobenzo[d]thiazol-2-yl)-3-((5-cyclopropyl-3-(2,6-dichlorophenyl)isoxazol-4-yl)methoxy)bicyclo[3.2.1]octan-8-ol]

— patent publication US9751874B2, “Hydroxy containing FXR (NR1H4) modulating compounds” (Gilead Sciences, Inc., priority 2014, dated 2017)
